One may read the DC50 as the midpoint of the concentration-degradation curve. The low end stands for degradation at low concentration, the high end for degradation only at high concentration. Broadly, the IC50 is the concentration at which inhibition is half-maximal. Read a low IC50 as higher potency.

Sequence of GST-tagged wild-type human CRBN protein (Q96SW2 whole entry): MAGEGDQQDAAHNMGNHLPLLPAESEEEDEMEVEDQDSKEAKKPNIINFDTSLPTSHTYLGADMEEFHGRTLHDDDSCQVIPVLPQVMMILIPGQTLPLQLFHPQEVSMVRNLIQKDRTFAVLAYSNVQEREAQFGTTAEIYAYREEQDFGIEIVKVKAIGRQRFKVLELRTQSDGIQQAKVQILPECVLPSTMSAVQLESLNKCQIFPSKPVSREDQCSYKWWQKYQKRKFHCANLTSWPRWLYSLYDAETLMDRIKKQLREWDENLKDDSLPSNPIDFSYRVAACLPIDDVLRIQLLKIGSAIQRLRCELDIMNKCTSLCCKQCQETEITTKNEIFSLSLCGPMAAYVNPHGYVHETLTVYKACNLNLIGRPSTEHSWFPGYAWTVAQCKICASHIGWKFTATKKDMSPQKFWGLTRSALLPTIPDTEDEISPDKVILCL

The target in the first test is ER (Homo sapiens (Human), UniProt P03372). Kind of test: In-Cell Western (ICW) ER degradation assay in MCF-7 and T47D cell lines. In kind it is cell-based. Conditions: ER level by In-Cell Western, 16 hrs treatment; MCF-7 and T47D described, cell line not given. How it is done: Subsequently, cells were blocked with Intercept (PBS) Blocking Buffer (Li-COR, Odyssey Blocking Buffer), and were stained with ER (1:500, Cell signaling) primary antibody for overnight at cold room. • Day 4: Remove the buffer, add IRDye 800CW Goat anti-Rabbit IgG Secondary Antibody (1:2000) and CellTag 700 Stain (1:500) in Intercept (PBS) Blocking Buffer. Finally, cell plate is placed in incubator to dry. Image and signal were captured on Odyssey® DLx Imaging System.
Sequence of ER (P03372 whole entry): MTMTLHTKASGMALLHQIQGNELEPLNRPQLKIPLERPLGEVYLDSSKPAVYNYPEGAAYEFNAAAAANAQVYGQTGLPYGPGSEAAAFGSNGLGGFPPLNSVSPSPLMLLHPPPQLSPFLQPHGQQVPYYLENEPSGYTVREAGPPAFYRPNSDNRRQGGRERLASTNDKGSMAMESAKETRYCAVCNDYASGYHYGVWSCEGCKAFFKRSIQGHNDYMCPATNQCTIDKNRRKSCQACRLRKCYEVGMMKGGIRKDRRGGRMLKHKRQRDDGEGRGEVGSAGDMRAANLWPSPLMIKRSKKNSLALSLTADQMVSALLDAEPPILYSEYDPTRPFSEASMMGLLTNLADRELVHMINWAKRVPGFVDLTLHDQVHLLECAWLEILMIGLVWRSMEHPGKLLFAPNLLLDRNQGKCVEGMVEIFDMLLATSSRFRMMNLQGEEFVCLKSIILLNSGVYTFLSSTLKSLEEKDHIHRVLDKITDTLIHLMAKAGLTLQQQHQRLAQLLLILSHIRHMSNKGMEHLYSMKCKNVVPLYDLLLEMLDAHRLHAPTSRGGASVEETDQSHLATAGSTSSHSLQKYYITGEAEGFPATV
In-cell western blot analysis. a. seed cells in black-sided/clear bottom 96- or 384-well plates at 40,000 or 10,000 cells/well, overnight; b. add diluted compounds (final 0.5% DMSO), 16 hours. 16 h later, remove medium, add 100 μL or 25 μL of 3.7-4.0% formaldehyde (PBS:FA=9:1), RT 20 min, no shaking; c. wash with PBS, and permeabilized with 100 μL or 25 μL/well of 1×PBS+0.1% Triton X-100 10 minutes; d. block with 100 μL or 25 μL Licor blocking buffer (Li-Cor), RT 1 h, moderate shaking; d. Add 100 μL or 25 μL of anti-ER (cs-8644, 1:500-1,000)+GAPDH (Millipore MAB374, 1:1000) in Block+0.05% Tween 20. RT 2 h, gentle shaking.
Negative control: cells plus secondary antibodies (no primary antibodies); e. wash ×4 with PBS+0.05-0.1% Tween 20, gentle shaking; f. anti-rabbit-680 and anti-mouse-800 (both 1:1000 in LiCor block+0.05% Tween20, RT 1 h, gentle shaking, no light. LI-COR: 0.2% to reduce background; g. wash ×4 with PBS+0.05% Tween 20, gentle shaking; h. add 100 μL or 25 μL of PBS to each well and read on CLX plate reader. The relative ER percentage in treated cells were obtained by comparing the values of treated wells to those in untreated and DMSO-treated wells as 100%.
`O=C1CC[C@H](N2Cc3c(ccc4c3OC[C@@H](CN3CCC5(CC3)CCN(c3ccc([C@@H]6c7ccc(O)cc7CC[C@@H]6c6ccccc6)cc3)CC5)O4)C2=O)C(=O)N1` [THP-B370] came in with a DC50 above 100 nM.

Compound `O=C1CC[C@H](N2Cc3c(ccc4c3OC[C@@H](CN3CC5(CCN(c6ccc([C@@H]7c8ccc(O)cc8CC[C@@H]7c7ccccc7)cc6)CC5)C3)O4)C2=O)C(=O)N1` [THP-B375] gave a DC50 of 10 to 100 nM.

Consider `O=C1CC[C@H](N2Cc3c(ccc4c3OC[C@H](CN3CCC5(CC3)CCN(c3ccc([C@@H]6c7ccc(O)cc7CC[C@@H]6c6ccccc6)cc3)CC5)O4)C2=O)C(=O)N1` [THP-B387], for which the 50% degradation concentration (DC50) was above 100 nM.

The compound `O=C1CCC(N2Cc3cc4c(cc3C2=O)OC[C@H](CN2CCC3(CC2)CCN(c2ccc([C@@H]5c6ccc(O)cc6CC[C@@H]5c5ccccc5)cc2)CC3)O4)C(=O)N1` (stereo partly drawn) [THP-B391, 3-((S)-2-((9-(4-((1R,2S)-6-hydroxy-2-phenyl-1,2,3,4-tetrahydronaphthalen-1-yl)phenyl)-3,9-diazaspiro[5.5]undecan-3-yl)methyl)-6-oxo-2,3,6,8-tetrahydro-7H-[1,4]dioxino[2,3-f]isoindol-7-yl)piperidine-2,6-dione] displayed a DC50 above 100 nM.

A further test concerns the target GST-tagged wild-type human CRBN protein (Homo sapiens (Human), UniProt Q96SW2). Kind of test: Cereblon binding assay (CRBN TR-FRET, Cisbio Cereblon Binding Kit). The conditions noted are these: XL665-labelled Thalidomide tracer, about 3 hours at room temperature. How it is done:
The binding to cereblon (CRBN) was determined using the Cereblon Binding Kit (Cisbio, #64BDCRBNPEG) following the manufacturer's instruction. Briefly, serially diluted compounds were incubated with GST-tagged wild-type human CRBN protein, XL665-labelled Thalidomide and Europium Cryptate labelled GST antibody at room temperature for about 3 hours. Time Resolved Fluorescence Resonance Energy Transfer (TR-FRET) measurements were acquired on a CALRIOstar plate reader with MARS data analysis software (BMG Labtech), with the following settings: 665/10 nm and 620/10 nm emission, 60 μs delay and 400 μs integration. The TR-FRET ratio was taken as the 665/620 nm intensity ratio.
(In TR-FRET formats the signal depends on donor and acceptor labels being close together.)
Turning to `O=C1CC[C@H](N2Cc3c(ccc4c3OCC(COCc3ccccc3)O4)C2=O)C(=O)N1` (stereo in doubt) [Compound B1, (S)-3-((S)-3-((benzyloxy)methyl)-7-oxo-2,3,7,9-tetrahydro-8H-[1,4]dioxino[2,3-e]isoindol-8-yl)piperidine-2,6-dione], the IC50 was determined as 300 nM.

In turn, `O=C1CC[C@H](N2Cc3c(ccc4c3OCC(CO)O4)C2=O)C(=O)N1` (stereo in doubt) [Compound B2, (S)-3-((S)-3-(hydroxymethyl)-7-oxo-2,3,7,9-tetrahydro-8H-[1,4]dioxino[2,3-e]isoindol-8-yl)piperidine-2,6-dione] gave an IC50 of 410 nM. This IC50 and that of the compound before are within 1.5-fold of each other.

For `O=C1CC[C@H](N2Cc3c(ccc4c3OC[C@H](COCc3ccccc3)O4)C2=O)C(=O)N1` [Compound B3, (S)-3-((S)-3-((benzyloxy)methyl)-7-oxo-2,3,7,9-tetrahydro-8H-[1,4]dioxino[2,3-e]isoindol-8-yl)piperidine-2,6-dione], the IC50 came to 120 nM.

`O=C1CC[C@H](N2Cc3c(ccc4c3OC[C@H](CO)O4)C2=O)C(=O)N1` [Compound B4, (S)-3-((S)-3-(hydroxymethyl)-7-oxo-2,3,7,9-tetrahydro-8H-[1,4]dioxino[2,3-e]isoindol-8-yl)piperidine-2,6-dione] yielded an IC50 of 310 nM.

`O=C1CCC(N2Cc3c(ccc4c3OC[C@H](COCc3ccccc3)N4)C2=O)C(=O)N1` (stereo partly drawn) [Compound B5, 3-((S)-3-((benzyloxy)methyl)-7-oxo-3,4,7,9-tetrahydro-[1,4]oxazino[2,3-e]isoindol-8(2H)-yl)piperidine-2,6-dione] returned an IC50 of 120 nM.

On to `O=C1CC[C@H](N2Cc3c(ccc4c3O[C@@H](CO)CO4)C2=O)C(=O)N1` [Compound B6, (S)-3-((S)-2-(hydroxymethyl)-7-oxo-2,3,7,9-tetrahydro-8H-[1,4]dioxino[2,3-e]isoindol-8-yl)piperidine-2,6-dione], for which the IC50 amounted to 540 nM.

With `O=C1CC[C@H](N2Cc3c(ccc4c3O[C@H](CO)CO4)C2=O)C(=O)N1` [Compound B7, (S)-3-((R)-2-(hydroxymethyl)-7-oxo-2,3,7,9-tetrahydro-8H-[1,4]dioxino[2,3-e]isoindol-8-yl)piperidine-2,6-dione], the IC50 worked out at 510 nM.

In turn, `O=C1CCC(N2Cc3c(ccc4c3O[C@H](CO)CO4)C2=O)C(=O)N1` (stereo partly drawn) [Compound B8, 3-((R)-2-(hydroxymethyl)-7-oxo-2,3,7,9-tetrahydro-8H-[1,4]dioxino[2,3-e]isoindol-8-yl)piperidine-2,6-dione] had an IC50 of 1000 nM.

As to `O=C1CC[C@H](N2Cc3cc4c(cc3C2=O)OC[C@H](CO)O4)C(=O)N1` [Compound B11, (S)-3-((S)-2-(hydroxymethyl)-6-oxo-2,3,6,8-tetrahydro-7H-[1,4]dioxino[2,3-f]isoindol-7-yl)piperidine-2,6-dione], the IC50 amounted to 3100 nM. This IC50 lies about 3.1-fold higher than the previous one.

`O=C1CC[C@H](N2Cc3cc4c(cc3C2=O)OC[C@H](COCc2ccccc2)O4)C(=O)N1` [Compound B12, (S)-3-((S)-2-((benzyloxy)methyl)-6-oxo-2,3,6,8-tetrahydro-7H-[1,4]dioxino[2,3-f]isoindol-7-yl)piperidine-2,6-dione] returned an IC50 of 3000 nM.

`O=C1CCC(N2C(=O)c3cc4c(cc3C2=O)O[C@@H](COCc2ccccc2)CO4)C(=O)N1` (stereo partly drawn) [Compound B13, (2S)-2-((benzyloxy)methyl)-7-(2,6-dioxopiperidin-3-yl)-2,3-dihydro-6H-[1,4]dioxino[2,3-f]isoindole-6,8(7H)-dione] yielded an IC50 of 3100 nM.

With `O=C1CCC(N2C(=O)c3cc4c(cc3C2=O)O[C@@H](COCc2ccccc2)CO4)C(=O)N1` (stereo partly drawn) [Compound B14, (2S)-2-((benzyloxy)methyl)-7-(2,6-dioxopiperidin-3-yl)-2,3-dihydro-6H-[1,4]dioxino[2,3-f]isoindole-6,8(7H)-dione], the IC50 worked out at 5160 nM.

For `O=C1CCC(N2C(=O)c3cc4c(cc3C2=O)OC(CO)CO4)C(=O)N1` (stereo not shown) [Compound B15, 7-(2,6-dioxopiperidin-3-yl)-2-(hydroxymethyl)-2,3-dihydro-6H-[1,4]dioxino[2,3-f]isoindole-6,8(7H)-dione], the IC50 worked out at 7890 nM.

For the next test, the system named is T47D cell line. Kind of test: Cell growth inhibition in T47D cell line. In kind it is cell-based. Conditions: Homo sapiens.
As for `O=C1CC[C@H](N2Cc3c(ccc4c3OC[C@@H](CN3CCC5(CC3)CCN(c3ccc([C@@H]6c7ccc(O)cc7CC[C@@H]6c6ccccc6)cc3)CC5)O4)C2=O)C(=O)N1` [THP-B370], the IC50 lay in the range of 1 to 10 nM.

Turning to `O=C1CC[C@H](N2Cc3c(ccc4c3OC[C@@H](CN3CC5(CCN(c6ccc([C@@H]7c8ccc(O)cc8CC[C@@H]7c7ccccc7)cc6)CC5)C3)O4)C2=O)C(=O)N1` [THP-B375], the IC50 is below 1 nM.

As to `O=C1CCC(N2Cc3cc4c(cc3C2=O)OC[C@H](CN2CCC3(CC2)CCN(c2ccc([C@@H]5c6ccc(O)cc6CC[C@@H]5c5ccccc5)cc2)CC3)O4)C(=O)N1` (stereo partly drawn) [THP-B391, 3-((S)-2-((9-(4-((1R,2S)-6-hydroxy-2-phenyl-1,2,3,4-tetrahydronaphthalen-1-yl)phenyl)-3,9-diazaspiro[5.5]undecan-3-yl)methyl)-6-oxo-2,3,6,8-tetrahydro-7H-[1,4]dioxino[2,3-f]isoindol-7-yl)piperidine-2,6-dione], the IC50 lay within 1 to 10 nM.

The compound `O=C1CC[C@H](N2Cc3c(ccc4c3OC[C@H](CN3CCC5(CC3)CCN(c3ccc([C@@H]6c7ccc(O)cc7CC[C@@H]6c6ccccc6)cc3)CC5)O4)C2=O)C(=O)N1` [THP-B392] came in with an IC50 of 1 to 10 nM.

The compound `O=C1CC[C@H](N2Cc3c(ccc4c3OC[C@H](CN3CC5(CCN(c6ccc([C@@H]7c8ccc(O)cc8CC[C@@H]7c7ccccc7)cc6)CC5)C3)O4)C2=O)C(=O)N1` [THP-B393] gave an IC50 below 1 nM.

For the origin of these results see US20240059711A1, “Cereblon Ligands and Uses Thereof” (REGENTS OF THE UNIVERSITY OF MICHIGAN, priority 2022, published 2024).
